Laboratory results: patent US7390910B2, “Compounds for treating tumors” (priority 2003, dated 2008)
Marks after values point to notes of the source that are not given here.

Experiments:
KB85 = test: cells; assay type: cell-based; settings: for IC50: 3 days, SRB
Protocol: (§1) Cell Survival Assay: Standard Pharmacological Test Procedure. […] Compounds are incubated with cells for 3 days.

KB cells = test: cells; assay type: cell-based; settings: for IC50: 3 days, SRB
Protocol: as §1

KBV1 = test: cells; assay type: cell-based; settings: for IC50: 3 days, SRB; for inhibition at 3 µM: KB-V1, 3000 nM
Protocol: as §1

[1] = test system: bovine microtubule-associated protein (MAP)-rich tubulin; assay type: biochemical
Protocol: Tubulin Polymerization Assays. For in vitro tubulin polymerization assays, bovine microtubule-associated protein (MAP)-rich tubulin, PEM buffer [80 mM Na-PIPES (pH 6.9), 1 mM MgCl2, and 1 mM EGTA], and GTP are purchased from Cytoskeleton (Denver, Colo.). MAP-rich tubulin (final concentration 1.5 mg/ml) is dissolved in cold PEM buffer containing 1 mM GTP (GPEM) and centrifuged at 12,000×g for 10 min at 4° C. The tubulin solution (100 μl/well) is added rapidly to wells of a low-volume, 96-well plate already containing duplicate aliquots (10 μl) of test compounds in GPEM. […] Control wells contained the same final concentration of DMSO (0.3%). After initiation of the reaction, absorbance at 340 nm is measured every minute for 60 min at 24° C. using a SpectraMax Plus plate reader (Molecular Devices, Sunnyvale, Calif.).

| Compound | IC50 (KB cells) | Tubulin Polym. % inhibition at 0.3 uM [1] | IC50 (KB85; 72 h) | IC50 (KB cells; Homo sapiens, KB, 72 h) | KBV1 % inhibition @ 3000 nM (KBV1) | other results |
| --- | --- | --- | --- | --- | --- | --- |
| CN[C@H](C(=O)N[C@H](C(=O)N(C)[C@H](/C=C(\C)C(C)O)C(C)C)C(C)(C)C)C(C)(C)c1ccccc1 (stereo partly drawn) [Example 78, N,β,β-trimethyl-L-phenylalanyl-N-1-[(1S,2E)-4-hydroxy-1-isopropyl-3-methylpent-2-enyl]-N-1,3-dimethyl-L-valinamide] | 0.063 µM | 75% |  |  |  | IC50 (KB85): 0.172 µM; IC50 (KBV1): 1.46 µM |
| CNC(C(=O)NC(C(=O)N(C)C(C=C(C)C=C(C)C(=O)O)C(C)C)C(C)(C)C)C(C)(C)c1ccccc1 (stereo not drawn) [Example 79, 6-{[3,3-Dimethyl-2-(3-methyl-2-methylamino-3-phenyl-butyrylamino)-butyryl]-methyl-amino}-2,4,7-trimethyl-octa-2,4-dienoic acid] |  |  | 0.053 µM | 0.027 µM |  | IC50 (KBV1; Homo sapiens, KB-V1, 72 h): 1.58 µM; Tubulin Polym. % inhibition at 0.5 uM ([1]; 0.5 uM): 90*** % |
| CN[C@H](C(=O)N[C@H](C(=O)N(C)[C@H](/C=C(\C)S(=O)(=O)O)C(C)C)C(C)(C)C)C(C)(C)c1ccccc1 [Example 66, N,β,β-trimethyl-L-phenylalanyl-N^1-[(1S,2E)-1-isopropyl-3-sulfobut-2-enyl] N^1,3-dimethyl-L-valinamide] |  | 91% |  |  | 0% | KB85 % inhibition @ 3000 nM (KB85; 3000 nM): 0%; KB % inhibition @ 3000 nM (KB cells; 3000 nM): 25% |
| CCOS(=O)(=O)/C=C/[C@H](C(C)C)N(C)C(=O)[C@@H](NC(=O)[C@@H](NC)C(C)(C)c1ccccc1)C(C)(C)C [Example 63, N,β,β-trimethyl-L-phenylalanyl-N^1-[(1S,2E)-3-(ethoxysulfonyl)-1-isopropylprop-2-enyl]-N^1,3-dimethyl-L-valinamide] |  | 42% |  |  |  | inhibition at 3 µM (KB85; 3000 nM): 0%; inhibition at 3 µM (KB cells; Homo sapiens, 72 h, 3000 nM): 1%; inhibition at 3 µM (KBV1; Homo sapiens): 0% |
| CN[C@H](C(=O)N[C@H](C(=O)N(C)[C@H](/C=C(\C)C(=O)c1ncc[nH]1)C(C)C)C(C)(C)C)C(C)(C)c1ccccc1 [Example 88, (2S)-N-[(1S,2E)-4-(1H-imidazol-2-yl)-1-isopropyl-3-methyl-4-oxobut-2-enyl]- -trimethyl-2-{[(2S)-3-methyl-2-(methylamino)-3-phenylbutanoyl]amino}butanamide] | 0.218 µM | 91% |  |  | 0% | IC50 (KB85): 1.36 µM |
| CN[C@H](C(=O)N[C@H](C(=O)N(C)[C@H](/C=C(\C)C(=O)N1CC=C[C@H]1C(=O)OC)C(C)C)C(C)(C)C)C(C)(C)c1ccccc1 [Example 47, N,β,β-trimethyl-L-phenylalanyl-N^1-{(1S,2E)-1-isopropyl-4-[(2S)-2-(methoxycarbonyl)-2,5-dihydro-1H-pyrrol-1-yl]-3-methyl-4-oxobut-2-enyl}-N^1,3-dimethyl-L-valinamide] |  | 88(2) % | 0.017 µM | 0.0035 µM |  | IC50 (KBV1; Homo sapiens, KB-V1, 72 h): 0.272 µM |
| CN[C@@H](C(=O)N[C@H](C(=O)N(C)[C@H](/C=C(\C)C(=O)O)C(C)C)C(C)(C)C)C12CC3CC(CC(C3)C1)C2 [Example 56, (2E,4S)-4-[{N-[(2R)-2-(1-adamantyl)-2-(methylamino)ethanoyl]-3-methyl-L-valyl}(methyl)amino]-2,5-dimethyl-2-hexenoic acid] |  |  | 0.575 µM | 0.468 µM |  | inhibition at 3 µM (KBV1; Homo sapiens): 11% |
| Ethyl (E,4S)-4-[((2S)-2-{[(2S)-2-azido-3-methyl-3-phenylbutanoyl]amino}-3,3 -dimethylbutanoyl)(methyl)amino]-2,5-dimethyl-2-hexenoate and ethyl (E,4S)-4-[((2S)-2-{[(2R)-2-azido-3-methyl-3-phenylbutanoyl]amino}-3,3-dimethylbutanoyl)(methyl)amino]-2,5-dimethyl-2-hexenoate [Example 93] | 2.51 µM |  |  |  | 30% | KB85 % inhibition @ 3000 nM (KB85; 3000 nM): 30% |
